Assay results from ChEMBL document CHEMBL3045216, “Synthesis and screening of 2-(2-(4-substituted piperazine-1-yl)-5-phenylthiazol-4-yl)-3-aryl quinazolinone derivatives as anticancer agents” (Med Chem Res, 2013).

Tests used:
HEK293 = experiment: Cytotoxicity against Homo sapiens (human) HEK293 cells assessed as inhibition of cell proliferation after 24 hr by MTT assay; format: cell-based; settings: HEK293, 24 h
MCF7 = experiment: Anticancer activity against Homo sapiens (human) MCF7 cells assessed as inhibition of cell proliferation after 24 hr by MTT assay; format: functional, cell-based; settings: MCF7, 24 h
[1] = Anticancer activity against Homo sapiens (human) NCI lung cancer cell assessed as inhibition of cell proliferation after 24 hr by MTT assay; format: functional, cell-based; settings: Cancer cell lines

SMILES | IC50 (HEK293) [µM] | IC50 (MCF7) [µM] | IC50 [1] [µM]
CN1CCN(c2nc(-c3ccccc3)c(-c3nc4ccccc4c(=O)n3-c3ccccc3)s2)CC1 | 0.86 | 5.84 | 9.89
O=C(c1ccccc1)N1CCN(c2nc(-c3ccccc3)c(-c3nc4ccccc4c(=O)n3-c3ccccc3)s2)CC1 | 0.42 | 19.9 | 13.4
O=c1c2ccccc2nc(-c2sc(N3CCNCC3)nc2-c2ccccc2)n1-c1ccccc1 | 0.74 | 46.7 | 2.66
CN1CCN(c2nc(-c3ccccc3)c(-c3nc4ccccc4c(=O)n3Nc3ccccc3)s2)CC1 | 3.03 | 0.16 | 1.11
O=C(c1ccccc1)N1CCN(c2nc(-c3ccccc3)c(-c3nc4ccccc4c(=O)n3Nc3ccccc3)s2)CC1 | 0.8 | 2.49 | 5.59
COc1ccc(Nn2c(-c3sc(N4CCNCC4)nc3-c3ccccc3)nc3ccccc3c2=O)cc1 | 1.11 | 11.4 | 2.92
O=C(c1ccccc1)N1CCN(c2nc(-c3ccccc3)c(-c3nc4ccccc4c(=O)n3-c3ccc(Cl)cc3)s2)CC1 | 0.69 | > 100 | 15.6
CN1CCN(c2nc(-c3ccccc3)c(-c3nc4ccccc4c(=O)n3-c3ccc(Cl)cc3)s2)CC1 | 0.94 | 1.97 | > 100
O=c1c2ccccc2nc(-c2sc(N3CCNCC3)nc2-c2ccccc2)n1-c1ccc(Cl)cc1 | 14.4 | > 100 | 6.1
COc1ccccc1-n1c(-c2sc(N3CCN(C)CC3)nc2-c2ccccc2)nc2ccccc2c1=O | 0.67 | 1.5 | 9.43
COc1ccccc1-n1c(-c2sc(N3CCNCC3)nc2-c2ccccc2)nc2ccccc2c1=O | 0.55 | 3.7 | 4.33
COc1ccccc1-n1c(-c2sc(N3CCN(C(=O)c4ccccc4)CC3)nc2-c2ccccc2)nc2ccccc2c1=O | 2.29 | 0.66 | 5.93
CN1CCN(c2nc(-c3ccccc3)c(-c3nc4ccccc4c(=O)n3-c3ccccc3[N+](=O)[O-])s2)CC1 | 0.81 | 8.9 | 6.72
O=c1c2ccccc2nc(-c2sc(N3CCNCC3)nc2-c2ccccc2)n1-c1ccccc1[N+](=O)[O-] | 1.07 | 5.86 | 8.39
O=C(c1ccccc1)N1CCN(c2nc(-c3ccccc3)c(-c3nc4ccccc4c(=O)n3-c3ccccc3[N+](=O)[O-])s2)CC1 | 0.73 | 6.49 | 11
O=c1[nH]cc(F)c(=O)[nH]1 [FLUOROURACIL] | 2.15 | 1.25 | 2.3
CN(Cc1cnc2nc(N)nc(N)c2n1)c1ccc(C(=O)N[C@@H](CCC(=O)O)C(=O)O)cc1 [METHOTREXATE] | 1.27 | 2.26 | 2.2
